Data set [1] deals with S-180 sc. sarcoma. Briefly: Tumor inhibiting effect on solid tumors: S-180 sc. sarcoma. Format: in vivo, mouse. The procedure: (§1) Our tests were performed on various transplantable mouse and rat tumors. The following tumor strains were applied:
Mouse: SC-180 sc. sarcoma (solid)
(§2) The tests were always performed on animals of both sexes. At the beginning of the tests the average body weight of mice was 20 to 22 g, whereas that of rats 150 to 180 g. The animals were kept in plastic cages and fed with a standard laboratory animal feed (LATI, Godollo, Hungary). The animals received water ad libitum.
(§3) Solid tumors were transplanted by a subcutaneous implantation of tumor chips. Ascites type tumors were transplanted with 10^7 cells received from the ascites, whereas leukaemia type tumors were transplanted with spleen suspension. The treatment of the animals was started 24 hours after transplantation, with the only exception of Harding-Passey melanoma, when treatment was started on the 4th day after transplantation.
(§4) *Performed on groups of 8 animals

The subject of another data set is Yoshida sc. sarcoma. Briefly: Comparison of the ED50 values on Yoshida sc. sarcoma of rats (transplanted solid tumor). Format: in vivo, rat. The conditions noted are these: for ED50: Rattus norvegicus, Yoshida sc. sarcoma of rats; for Relative activity: calculated by comparing the ED50 values. As for the experimental part:
as §1
Rat: Yoshida sc. sarcoma
as §2, §3

For data set [2], the system named is peripheral blood count (granulocytes, lymphocytes). Description: Effect on peripheral blood count of rats (haematopoiesis). To be noted: reference substances; in words.
For another data set, the system named is Harding-Passey melanoma. Description: Tumor inhibiting effect on solid tumors: Harding-Passey melanoma. Format: in vivo, mouse. The conditions noted are these: treatment from 4th day after transplantation. As for the experimental part: as §1
Harding-Passey melanoma
as §2, §3, §4

For data set [3], the system named is Walker sc. carcino-sarcoma. To be noted: 100 mg/kg, 6 × i.p.; cited from earlier work.
The subject of data set [4] is S-180 sc. sarcoma. To be noted: 200 mg/kg, 8 × i.p.; cited from earlier work.
In data set [5] the test system is NK/Ly lymphoma. To be noted: 125 mg/kg, 6 × i.p.; cited from earlier work.
Data set [6] relates to CFLP and BDF1 mice. The conditions noted are these: same animals, Nemeth et al. 1972, cited from earlier work.
The subject of data set [7] is Walker sc. carcino-sarcoma. Briefly: Tumor inhibiting effect on solid tumors: Walker sc. sarcoma. The conditions noted are these: 10 mg/kg. The data set is classed as in vivo, rat. The procedure:
as §1
Walker sc. carcino-sarcoma
as §2, §3, §4

Data set [8] deals with NK/Ly lymphoma. Description: Tumor inhibiting effect on ascites type tumors: NK/Ly lymphoma. Format: in vivo, mouse. To be noted: 30 mg/kg, 4 × i.p. The procedure:
as §1, §2, §3

Another data set relates to Ehrlich asc. carcinoma. Description: Tumor inhibiting effect on ascites type tumors: Ehrlich ascites carcinoma. The data set is classed as in vivo, mouse. The procedure: as §1, §2, §3
Healing=tumor-free survival of 90 days after transplantation

Data set [9] in a line: Acute toxicity (LD50) on CFLP and BDF1 mice. To be noted: mouse, in vivo. As for the experimental part: (§5) The tests were performed on groups consisting of 10 mice (5 males and 5 females), and the animals were kept under observation for 3 weeks.
Data set [10] concerns CFLP and BDF1 mice. Description: Acute toxicity (LD50) on CFLP and BDF1 mice. The conditions noted are these: in words. The procedure:
as §5

Data set [11] relates to transplantable mouse and rat tumors. Description: Cytostatic effect / growth inhibition on transplantable mouse and rat tumors (overall statements). The data set is classed as in vivo. To be noted: in words. As for the experimental part: as §1, §2, §3

Here are results for five molecules from patent US4235803A (priority 1978, dated 1980).

Like-named read-outs stand apart in the source and are kept apart here.

In turn, “1,6-dimesyl-1,6-dideoxy-D-mannitol [reference compound]” returned an Inhibition in the data set on S-180 sc. sarcoma [1] (300 mg/kg, 6 × i.p.) of 31. Moreover, the “Inhibition (toxicity reported in this column)” value in the data set with S-180 sc. sarcoma [1] (500 mg/kg, 6 × i.p.) is “toxic”.
By ED50 is commonly meant the dose that gives a 50% effect, or the effect in half of the subjects. A low value points to an effect at a small dose. As for `CS(=O)(=O)OC[C@@H](O)[C@@H](O)[C@H](O)[C@H](O)COS(C)(=O)=O` [1,6-Dimesyl-D-mannitol (Mannogranol), 1,6-dimesyl-D-mannitol], the results for the ED50 in the data set on Yoshida sc. sarcoma (ip) and in the data set with Yoshida sc. sarcoma (po) were 500 mg/kg and 600 mg/kg, respectively.
Turning to `O[C@@H]([C@H](O)[C@H](O)CBr)[C@H](O)CBr` [1,6-dibromo-1,6-dideoxy-D-mannitol], the ED50 with Yoshida sc. sarcoma (ip) stood at 490 mg/kg; in the data set with Yoshida sc. sarcoma (po) it was 170 mg/kg. Besides, the Relative activity with Yoshida sc. sarcoma (i.p.) was 0.04; in the data set with Yoshida sc. sarcoma (p.o.), 0.41. Besides, the “effect on haematopoiesis (formation of myeloid leukocytes)” value in data set [2] is “rather strong and selective action on the formation of myeloid leukocytes”.
As for `O[C@H]([C@H](O)[C@@H](O)CBr)[C@H](O)CBr` [1,6-dibromo-1,6-dideoxy-dulcitol], in the data set on Yoshida sc. sarcoma (ip), it took a dose of 50 mg/kg to reach the 50% effect level (ED50). Besides, in the data set on Yoshida sc. sarcoma (i.p.), the Relative activity is recorded as 0.4. The Inhibition in the data set with Harding-Passey melanoma (200 mg/kg, 13 × i.p.) is 67; in data set [3], 95; in the data set on S-180 sc. sarcoma [4], 57. Also, the “Prol. of life span” value in the data set on NK/Ly lymphoma [5] is reported as 90%. The LD50 value in the data set on CFLP and BDF1 mice [6] (i.p.) is 900 mg/kg; in the data set on CFLP and BDF1 mice [6] (p.o.) it was 1500 mg/kg. Further, the “effect on haematopoiesis (formation of myeloid leukocytes)” value in [2] was “rather strong and selective action on the formation of myeloid leukocytes”.
As a reminder, the LD50 is the dose expected to kill half of the subjects tested. High values mean lower toxicity, low ones greater toxicity. Take `CO[C@@H]([C@H](OC)[C@H](O)COS(C)(=O)=O)[C@H](O)COS(C)(=O)=O` [compound of formula (I), 1,6-dimesyl-3,4-dimethyl-D-mannitol]: the ED50 in the data set on Yoshida sc. sarcoma (ip) stood at 20 mg/kg; in the data set with Yoshida sc. sarcoma (po), 70 mg/kg. Moreover, the Inhibition in data set [7] (5 × i.p.) is on record as 90; in [7] (5 × p.o.), 97; in the data set with S-180 sc. sarcoma [1] (100 mg/kg, 4 × p.o.), 50; in the data set with S-180 sc. sarcoma [1] (200 mg/kg, 6 × p.o.) it was 70; in the data set with Harding-Passey melanoma (30 mg/kg, 10 × p.o.), 31; in the data set with Harding-Passey melanoma (100 mg/kg, 10 × p.o.) it was 52. For the same molecule, the “Prol. of life span” value with NK/Ly lymphoma [8] is 101%; in the data set on Ehrlich asc. carcinoma (100 mg/kg, 4 × i.p.) it was 99.6%. Besides, in the data set on Ehrlich asc. carcinoma (in words), the “effect on Ehrlich ascites tumor” value is recorded as “healing effect”. The LD50 at 504 h came out at 1000 mg/kg in [9] (ip) and 1100 mg/kg in data set [9] (po). Moreover, the toxicity entry in the data set on CFLP and BDF1 mice [10] is reported as “low toxicity”. The oral resorption result with CFLP and BDF1 mice [10] (inferred from i.p. vs oral LD50) is listed as “excellent oral resorption”. Moreover, the cytostatic effect entry is “strong cytostatic effect” in data set [11] and “extremely potent cytostatic agent” in data set [11] (listed as 1,6-dimesyl-3,4-dimethyl-D-mannitol). In [11], the “cytostatic effect compared with Mannogranol, Myelobromol and Elobromol” value is reported as “even more effective”. The “inhibition of the growth of solid tumors” value in data set [11] (solid tumors, even in very low dosages compared to the toxic one) was “significantly inhibits the growth of solid tumors”.
